Experimental data as given in the supplement of paper PMC10307832.

Columns and labels:
Assay in all cases: relative viability (nuclei count vs DMSO), 5 days (fraction); higher = more cells survive
[1] = compound: CC1=C(CC(=O)O)c2cc(F)ccc2/C1=C\c1ccc([S+](C)[O-])cc1 [Sulindac] + COc1cc2c(Oc3ccc(NC(=O)C4(C(=O)Nc5ccc(F)cc5)CC4)cc3F)ccnc2cc1OCCCN1CCOCC1 [Foretinib] (partner 0.25 µM)
Summary of the method: (§1)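 Five library-drug doses in √10 steps were combined with a fixed anchor-drug dose, or a single drug was given alone, by pin tool to lung cancer cell lines in 1536-well plates the day after seeding. Nuclei were stained and counted after 5 days. Relative viability is the nuclei count in treated wells over that in vehicle wells, taken as the median of duplicate plates.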

[2] = compound: CN[C@@H]1C[C@H]2O[C@@](C)([C@@H]1OC)n1c3ccccc3c3c4c(c5c6ccccc6n2c5c31)C(=O)NC4 [Staurosporine] + COc1cc2c(Oc3ccc(NC(=O)C4(C(=O)Nc5ccc(F)cc5)CC4)cc3F)ccnc2cc1OCCCN1CCOCC1 [Foretinib] (partner 0.25 µM)
Summary of the method: as §1

[3] = compound: O=c1[nH]cc(F)c(=O)[nH]1 [5-Fluorouracil] + NC(=O)Nc1cc(-c2cccc(F)c2)sc1C(=O)N[C@H]1CCCNC1 [AZD7762] (partner 0.2 µM)
Summary of the method: as §1

[4] = compound: CN[C@@H]1C[C@H]2O[C@@](C)([C@@H]1OC)n1c3ccccc3c3c4c(c5c6ccccc6n2c5c31)C(=O)NC4 [Staurosporine] + CCNC(=O)c1noc(-c2cc(C(C)C)c(O)cc2O)c1-c1ccc(CN2CCOCC2)cc1 [Luminespib] (partner 0.01 µM)
Summary of the method: as §1

Cell Line	relative viability ([1]; first compound 0.08 µM)	relative viability ([1]; first compound 0.253 µM)	relative viability ([1]; first compound 0.8 µM)	relative viability ([1]; first compound 2.53 µM)	relative viability ([1]; first compound 8 µM)	relative viability ([2]; first compound 0.005 µM)	relative viability ([2]; first compound 0.01581 µM)	relative viability ([2]; first compound 0.05 µM)	relative viability ([2]; first compound 0.1581 µM)	relative viability ([2]; first compound 0.5 µM)	relative viability ([3]; first compound 0.02 µM)	relative viability ([3]; first compound 0.2 µM)	relative viability ([3]; first compound 0.6325 µM)	relative viability ([3]; first compound 2 µM)	relative viability ([4]; first compound 0.005 µM)	relative viability ([4]; first compound 0.01581 µM)	relative viability ([4]; first compound 0.05 µM)	relative viability ([4]; first compound 0.1581 µM)	relative viability ([4]; first compound 0.5 µM)
NCI-H1666	1.01	1.02	0.908	0.975	1.13	0.668	0.513	0.545	0.391	0.359	0.708	0.389	0.462	0.426	0.758	0.582	0.604	0.38	0.279
LOU-NH91	0.859	0.964	0.876	0.935	1.11	0.923	0.816	0.627	0.512	0.238	0.754	0.725	0.44	0.313	0.355	0.279	0.209	0.289	0.212
LXF-289	0.98	1.05	0.98	1.02	1.03	1.01	0.164	0.268	0.0989	0.0792	1.1	0.495	0.342	0.313	0.584	0.13	0.246	0.0904	0.0899
NCI-H1299	1.13	1.09	1.06	1.02	1.15	0.893	0.352	0.231	0.121	0.132	–	–	–	–	–	–	–	–	–
HARA	1.28	1.05	0.991	0.819	1.1	0.77	–	0.327	0.184	0.258	0.411	0.32	0.4	0.211	0.697	–	0.297	0.0959	0.0973
LU99A	0.87	0.808	0.934	0.791	0.926	0.739	0.505	0.342	0.264	0.219	0.364	0.458	0.368	0.177	0.21	0.176	0.134	0.137	0.123
201T	1.1	1.08	–	–	1.22	0.881	0.896	0.518	0.314	0.159	0.51	0.264	0.197	0.217	1.03	–	0.693	0.349	0.334
HCC-827	1.03	1.05	1.1	1.01	1.09	1.06	0.589	0.645	0.381	0.395	0.164	0.178	0.166	0.147	0.997	0.532	0.13	0.139	0.121
NCI-H1703	0.276	0.389	0.355	0.382	0.377	0.303	0.246	0.196	0.2	0.156	0.103	0.072	0.118	0.118	–	–	–	–	–
NCI-H1975	1.12	1.01	1.05	0.993	1.05	0.4	0.349	0.21	0.104	0.0901	–	0.596	0.32	0.28	0.159	0.155	0.131	0.169	0.146
NCI-H2023	0.969	0.867	0.715	0.821	1.07	0.526	–	0.174	0.107	0.0611	–	–	–	–	0.343	0.228	0.109	0.088	0.045
ChaGo-K-1	1.05	0.999	0.925	0.991	0.926	0.881	0.528	0.676	0.223	0.188	0.883	0.917	0.609	0.383	0.7	0.344	0.374	0.185	0.176
COR-L 105	0.871	0.904	1.18	0.783	1.44	0.439	0.389	0.322	0.341	0.231	–	–	–	–	0.364	0.277	0.192	0.253	0.161
NCI-H2170	1.1	0.547	1.05	0.978	1.01	1.04	–	0.866	0.382	0.307	0.793	0.718	0.317	0.236	0.587	–	0.463	0.238	0.148
A549	1.04	1.12	0.653	0.975	1.12	0.675	0.268	0.297	0.0276	0.0246	–	–	–	–	–	–	–	–	–
NCI-H460	1.3	1.12	0.667	1.02	1.08	0.972	0.85	0.755	0.161	0.013	0.678	0.332	0.0757	0.0672	0.0316	0.0208	0.0244	0.0122	0.0179
NCI-H1993	0.728	0.724	0.751	0.761	0.752	0.818	0.701	0.586	0.535	0.489	0.737	0.622	0.542	0.505	0.75	0.532	0.51	0.494	0.303
Calu-6	1.02	0.916	0.846	0.893	1.08	0.75	0.456	0.254	0.0642	0.0391	–	–	–	–	–	–	–	–	–
SW 900	–	0.645	–	0.948	1.11	0.388	0.331	0.406	0.22	0.144	0.739	0.695	0.543	0.398	0.164	0.149	0.134	0.14	0.161
